In ChEMBL document CHEMBL1201862, “PubChem BioAssay data set” (2004):
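Each compound was tested at five concentrations against cells in 96-well plates for 48 hours. Abbreviation: GI50, concentration required for 50% inhibition of growth.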 The source made the active and inactive calls. Rule as the data show it: active = GI50 up to about 1.1 µM and inactive = higher.

Tests used:
Assay in all cases: inhibition of tumour cell growth, NCI panel, 48 h
HOP-62 = tested on: HOP-62
SNB-75 = tested on: SNB-75
SK-MEL-5 = tested on: SK-MEL-5
HOP-92 = tested on: HOP-92
NCI-H460 = tested on: NCI-H460
SK-MEL-2 = tested on: SK-MEL-2
SF-539 = tested on: SF-539
M14 = tested on: M14
MOLT-4 = tested on: MOLT-4
LOX IMVI = tested on: LOX IMVI
RPMI-8226 = tested on: RPMI-8226
COLO 205 = tested on: COLO 205
UACC-62 = tested on: UACC-62
A498 = tested on: A498
SF-268 = tested on: SF-268
SK-MEL-28 = tested on: SK-MEL-28
SF-295 = tested on: SF-295
UO-31 = tested on: UO-31
T47D = tested on: T47D
PC-3 = tested on: PC-3

Compound | GI50 (HOP-62) | GI50 (SNB-75) | GI50 (SK-MEL-5) | GI50 (HOP-92) | GI50 (NCI-H460) | GI50 (SK-MEL-2) | GI50 (SF-539) | GI50 (M14) | GI50 (MOLT-4) | GI50 (LOX IMVI) | GI50 (RPMI-8226) | GI50 (COLO 205) | GI50 (UACC-62) | GI50 (A498) | GI50 (SF-268) | GI50 (SK-MEL-28) | GI50 (SF-295) | GI50 (UO-31) | GI50 (T47D) | GI50 (PC-3)
O=C1C=C(NCC(c2ccccc2)c2ccccc2)C(=O)c2ncccc21 | 1.57 µM (inactive) | 0.507 µM (active) | 0.427 µM (active) | 2.26 µM (inactive) | 0.518 µM (active) | 2.28 µM (inactive) | 3.09 µM (inactive) | 1.61 µM (inactive) | 2.31 µM (inactive) | 1.11 µM (active) | 1.72 µM (inactive) | 9.89 µM (inactive) | 1.39 µM (inactive) | 2.24 µM (inactive) | 2.53 µM (inactive) | 2.85 µM (inactive) | 1.74 µM (inactive) | 1.11 µM (active) | 3.08 µM (inactive) | 1.75 µM (inactive)
Cc1nn(C(=O)c2ccccc2O)c2c1C(c1ccc3ccccc3c1O)SC(=N)N2 (stereo not given) | 4.26 µM (inactive) | 2.85 µM (inactive) | 1.63 µM (inactive) | 0.378 µM (active) | 5.53 µM (inactive) | 4.39 µM (inactive) | 4.53 µM (inactive) | 6.21 µM (inactive) | 2.98 µM (inactive) | 3.75 µM (inactive) | 4.34 µM (inactive) | 2.4 µM (inactive) | 1.77 µM (inactive) | 6.47 µM (inactive) | 4.89 µM (inactive) | 5.16 µM (inactive) | > 10 µM (inactive) | 4.2 µM (inactive) | 1.87 µM (inactive) | 3.66 µM (inactive)
O=P1(Oc2ccccc2)N(CCCl)CCN1c1ccccc1 (stereo not given) | > 100 µM (inactive) | 34.8 µM (inactive) | 66.5 µM (inactive) | > 100 µM (inactive) | > 100 µM (inactive) | > 100 µM (inactive) | > 100 µM (inactive) | > 100 µM (inactive) | 61.8 µM (inactive) | > 100 µM (inactive) | > 100 µM (inactive) | > 100 µM (inactive) | > 100 µM (inactive) | 55 µM (inactive) | > 100 µM (inactive) | > 100 µM (inactive) | > 100 µM (inactive) | > 100 µM (inactive) | > 100 µM (inactive) | > 100 µM (inactive)
Cc1cc(Cc2cc(C)c(NC(=O)C(=O)C3CCC4=C(SC5C=CC=CC5N4)C3=O)c(C(C)C)c2)cc(C(C)C)c1NC(=O)C(=O)C1CCC2=C(SC3C=CC=CC3N2)C1=O (stereo not given) | 94.4 µM (inactive) | 94.6 µM (inactive) | 35.8 µM (inactive) | > 100 µM (inactive) | 53.1 µM (inactive) | 45.5 µM (inactive) | 12.5 µM (inactive) | > 100 µM (inactive) | 32.2 µM (inactive) | 96.6 µM (inactive) | 37.4 µM (inactive) | 44.6 µM (inactive) | 53.1 µM (inactive) | > 100 µM (inactive) | 74.8 µM (inactive) | > 100 µM (inactive) | 69.7 µM (inactive) | 41.3 µM (inactive) | 29.2 µM (inactive) | 25.1 µM (inactive)
Nc1cccc(/C=C/C(=O)N2CCN(CCOC(c3ccccc3)c3ccccc3)CC2)c1 | 17.7 µM (inactive) | 13.1 µM (inactive) | 15.9 µM (inactive) | 12.9 µM (inactive) | 16.9 µM (inactive) | 16.2 µM (inactive) | 17.3 µM (inactive) | 13.2 µM (inactive) | 5.42 µM (inactive) | 17.9 µM (inactive) | 10.5 µM (inactive) | 12.7 µM (inactive) | 16.1 µM (inactive) | 17.5 µM (inactive) | 17.4 µM (inactive) | 15 µM (inactive) | 17.3 µM (inactive) | 16.9 µM (inactive) | 13.1 µM (inactive) | 14.7 µM (inactive)
COC(=O)[C@]1(c2cc3ccccc3[nH]2)CC2CN(C(=O)OCc3ccccc3)C1CC2=O (stereo not given in full) | 43.2 µM (inactive) | 16.5 µM (inactive) | 17.1 µM (inactive) | 20.4 µM (inactive) | 24.4 µM (inactive) | 18.2 µM (inactive) | 28.3 µM (inactive) | 30.5 µM (inactive) | 15 µM (inactive) | 22.5 µM (inactive) | 17.5 µM (inactive) | 16.5 µM (inactive) | 17.1 µM (inactive) | 20 µM (inactive) | 27.4 µM (inactive) | 39.3 µM (inactive) | 25.4 µM (inactive) | 21.3 µM (inactive) | 22.5 µM (inactive) | 17.1 µM (inactive)
O=C(/C=C/c1ccc(O)c(O)c1)c1ccc(O)cc1O [BUTEIN] | 17.4 µM (inactive) | 11.1 µM (inactive) | 11.6 µM (inactive) | 15.7 µM (inactive) | 15.2 µM (inactive) | 14.9 µM (inactive) | 11.2 µM (inactive) | 16.3 µM (inactive) | 7.64 µM (inactive) | 8.26 µM (inactive) | 10.5 µM (inactive) | 14.5 µM (inactive) | 16.9 µM (inactive) | 17.7 µM (inactive) | 14.8 µM (inactive) | 14.5 µM (inactive) | 22.3 µM (inactive) | 14 µM (inactive) | 14.4 µM (inactive) | 19.6 µM (inactive)
